Source: patent publication US12336995B2, “Combination therapies” (Mirati Therapeutics, Inc., priority 2018, dated 2025)

What was measured:
LU6405 cells (PDX model) = assay: In vivo PDX model, Compound 478 and Afatinib (Table 4c); settings: LU6405, Afatinib 12.5 mg/kg, single or combined
Method: (§1) Immunocompromised nude/nude mice were inoculated in the right hind flank with cells or patient derived tumor samples harboring a KRas G12C mutation. […] The first group was administered vehicle only. […] The fourth group was administered the single agent dose of the KRas G12C inhibitor in combination with the single agent dose of the pan ErbB family inhibitor. […] Tumor volumes were measured using a caliper every two-three days and tumor volumes were calculated by the formula: 0.5×(Length×Width)^2.
(§2) Tumor volumes were measured at pre-specified days set forth below.

H2122 cells = assay: In vivo tumor model, Compound 478 and Afatinib (Table 4a); settings: for Average Tumor Volumes: H2122, Afatinib 12.5 mg/kg, single or combined
Method: as §1, §2

KYSE-410 cells = assay: In vivo tumor model, Compound 478 and Afatinib (Table 4b); settings: KYSE-410, Afatinib 12.5 mg/kg, single or combined
Method: as §1, §2

[1] = Day 11 post implant (treatment start), p.o. daily: Compound 478 100 mg/kg
[2] = Day 14 post implant, p.o. daily from Day 11: Compound 478 100 mg/kg
[3] = Day 18 post implant, p.o. daily from Day 11: Compound 478 100 mg/kg
[4] = Day 21 post implant, p.o. daily from Day 11: Compound 478 100 mg/kg
[5] = Day 25 post implant, p.o. daily from Day 11: Compound 478 100 mg/kg
[6] = Day 28 post implant, p.o. daily from Day 11: Compound 478 100 mg/kg
[7] = Day 32 post implant, p.o. daily from Day 11: Compound 478 100 mg/kg
[8] = Day 34 post implant, p.o. daily from Day 11: Compound 478 100 mg/kg

Question: With CN(C)C/C=C/C(=O)Nc1cc2c(Nc3ccc(F)c(Cl)c3)ncnc2cc1OC1CCOC1 (centres unmarked) [Afatinib, (E)-N-(4-((3-chloro-4-fluorophenyl)amino)-7-((tetrahydrofuran-3-yl)oxy)quinazolin-6-yl)-4-(dimethylamino)but-2-enamide, reference compound] as the compound, how does the “Average Tumor Volumes” value (LU6405 cells (PDX model); [1]) read?
Answer: 257.48 mm^3

Question: And the “Average Tumor Volumes” value (LU6405 cells (PDX model); [2])?
Answer: 371.98 mm^3

Question: And the “Average Tumor Volumes” value (LU6405 cells (PDX model); [3])?
Answer: 585.54 mm^3

Question: What about the “Average Tumor Volumes” value (LU6405 cells (PDX model); [4]) of the same compound?
Answer: 775.75 mm^3

Question: What about the “Average Tumor Volumes” value (LU6405 cells (PDX model); [5]) of the same compound?
Answer: 1056.23 mm^3

Question: What about the “Average Tumor Volumes” value (LU6405 cells (PDX model); [6]) of the same compound?
Answer: 1197.31 mm^3

Question: What about the “Average Tumor Volumes” value (LU6405 cells (PDX model); [7]) of the same compound?
Answer: 1540.74 mm^3

Question: And the “Average Tumor Volumes” value (LU6405 cells (PDX model); [8])?
Answer: 1655.49 mm^3

Question: And the “Average Tumor Volumes” value (H2122 cells; [1])?
Answer: 324.86 mm^3

Question: And the “Average Tumor Volumes” value (H2122 cells; Day 13 post implant, p.o. daily from Day 11: Compound 478 100 mg/kg)?
Answer: 429.76 mm^3

Question: And the “Average Tumor Volumes” value (H2122 cells; Day 15 post implant, p.o. daily from Day 11: Compound 478 100 mg/kg)?
Answer: 573.36 mm^3

Question: What about the “Average Tumor Volumes” value (H2122 cells; [3]) of the same compound?
Answer: 694.70 mm^3

Question: And the “Average Tumor Volumes” value (H2122 cells; Day 20 post implant, p.o. daily from Day 11: Compound 478 100 mg/kg)?
Answer: 850.85 mm^3

Question: And the “Average Tumor Volumes” value (H2122 cells; Day 22 post implant, p.o. daily from Day 11: Compound 478 100 mg/kg)?
Answer: 931.53 mm^3

Question: And the “Average Tumor Volumes” value (H2122 cells; [5])?
Answer: 1153.42 mm^3

Question: What about the “Average Tumor Volumes” value (H2122 cells; Day 27 post implant, p.o. daily from Day 11: Compound 478 100 mg/kg) of the same compound?
Answer: 1307.50 mm^3

Question: And the “Average Tumor Volumes” value (H2122 cells; Day 29 post implant, p.o. daily from Day 11: Compound 478 100 mg/kg)?
Answer: 1137.09 mm^3

Question: And the “Average Tumor Volumes” value (H2122 cells; [7])?
Answer: 1403.33 mm^3

Question: What about the “Average Tumor Volumes” value (H2122 cells; [8]) of the same compound?
Answer: 1830.13 mm^3

Question: What about the tumor growth inhibition (H2122 cells; H2122 tumor bearing mice, Day 22 (Treatment Day 10), single agent, Compound 478 100 mg/kg, afatinib 12.5 mg/kg p.o. daily) of the same compound?
Answer: 41%

Question: What about the “Average Tumor Volumes” value (KYSE-410 cells; [1]) of the same compound?
Answer: 311.84 mm^3

Question: What about the “Average Tumor Volumes” value (KYSE-410 cells; [2]) of the same compound?
Answer: 199.20 mm^3

Question: And the “Average Tumor Volumes” value (KYSE-410 cells; Day 16 post implant, p.o. daily from Day 11: Compound 478 100 mg/kg)?
Answer: 135.30 mm^3

Question: And the “Average Tumor Volumes” value (KYSE-410 cells; [3])?
Answer: 114.40 mm^3

Question: And the “Average Tumor Volumes” value (KYSE-410 cells; [4])?
Answer: 114.08 mm^3

Question: What about the “Average Tumor Volumes” value (KYSE-410 cells; Day 23 post implant, p.o. daily from Day 11: Compound 478 100 mg/kg) of the same compound?
Answer: 132.92 mm^3

Question: What about the “Average Tumor Volumes” value (KYSE-410 cells; [5]) of the same compound?
Answer: 141.90 mm^3

Question: And the “Average Tumor Volumes” value (KYSE-410 cells; [6])?
Answer: 144.36 mm^3

Question: What about the “Average Tumor Volumes” value (KYSE-410 cells; Day 30 post implant, p.o. daily from Day 11: Compound 478 100 mg/kg) of the same compound?
Answer: 166.46 mm^3

Question: And the “Average Tumor Volumes” value (KYSE-410 cells; [7])?
Answer: 163.92 mm^3

Question: And the “Average Tumor Volumes” value (KYSE-410 cells; Day 35 post implant, p.o. daily from Day 11: Compound 478 100 mg/kg)?
Answer: 181.68 mm^3

Question: What about the “Average Tumor Volumes” value (KYSE-410 cells; Day 37 post implant, p.o. daily from Day 11: Compound 478 100 mg/kg) of the same compound?
Answer: 198.34 mm^3
